Experimental data reported in patent US20060013858A1, “Fludrocortisone treatment for hearing loss” (priority 2002, published 2006).
“And” between values parts separate entries of the source, which are not always exact repeats. Equal values may be shown once. Read-outs that look alike come from different tables or passages of the source.

What was measured:
[1] = system: MRL/MpJ-Fas^lPr autoimmune mice; experiment: Auditory brainstem response (ABR) audiometry after oral steroid treatment; assay type: in vivo, mouse; conditions: for % of ears that are same (unchanged) / % of ears that are worse / % of ears that are better: two months following treatment, dose not stated; for % of ears that are same (unchanged): combined ABR thresholds +/-15 dB; for % of ears that are worse: combined ABR thresholds higher by 20 dB or more; for % of ears that are better: combined ABR thresholds lower by 20 dB or more
Description: The MRL/MpJ-Fas^lPr autoimmune mouse is an established model of autoimmune sensorineural hearing loss (Ruckenstein et al., Acta OtolaryngoL 113:160-5, 1993; Trune et al. Hear. Res. 105:57-64, 1997). These mice carry a Fas gene defect that prevents apoptosis of self-recognizing T lymphocytes, leading to T cell proliferation and polyclonal B cell activation (Watanabe-Fukunaga et al. Nature 356:314-7, 1992). Spontaneous systemic autoimmune disease develops in MRL/MpJ-Fas^lPr autoimmune mice, resulting in increased serum immune complexes, anti-DNA antibodies, lymphadenopathy, elevated auditory thresholds, lowered hematocrits due to anti-erythrocyte autoantibodies, splenomegaly, increased body mass and pathological changes in the stria vascularis (Id. and Ruckenstein et al. Otolaryngol. Head Neck Surg. 121:452-6, 1999; Trune et al. Hear. Res. 155:9-20, 2001).
Mice (Jackson Laboratories, Bar Harbor, Me.) were obtained at two months of age. Onset of systemic autoimmune disease occurs at 3-4 months of age and cochlear thresholds rise shortly thereafter (Trune et al., Otolaryngol. Head Neck Surg. 117:504-8, 1997). Mice were tested with auditory brainstem response (ABR) audiometry (see Example 2) at 2-3 months of age to establish pretreatment baseline auditory thresholds.
(§1) Animals were anesthetized (kcetamine+xylazine) and the individual ears of each mouse stimulated with a closed-tube sound delivery system sealed into the ear canal. The ABR to tone-burst stimuli at 4, 8, 16, and 32 kHz was recorded and thresholds obtained for each ear. Absolute thresholds and threshold changes over the treatment period for each ear were calculated to determine if treatments impact cochlear function. For each ear, pretreatment and posttreatment thresholds at the four frequencies were compared statistically to establish any change over the treatment period.
(§2) The shifts for each frequency within an ear were added to derive its total change in threshold as described previously (Trune et al., Hear. Res. 137:160-6, 1999; Trune et al., Hear. Res. 137:167-73, 1999). If the ear's combined posttreatment thresholds was lower by 20 dB or more, the ear was considered to be improved (average of 5 dB per frequency). The ear is considered unchanged if the combined thresholds are +/−15 dB and worse if the combined thresholds were higher by 20 dB or more.

[2] = system: MRL/MpJ-Fas^lPr autoimmune mice; experiment: Blood hematocrit as index of systemic autoimmune disease; assay type: in vivo, mouse; conditions: for change in hematocrit: pre- vs posttreatment, any dose
Description: (§3) This example describes methods used to measure the severity of systemic autoimmune disease, as described in Trune et al. (Hear. Res. 38:57-66, 1989). Briefly, baseline and posttreatment serum samples are taken for measurement of hematocrit, antinuclear antibodies, and serum immune complexes as indices of systemic autoimmune disease progression. […] For those mice still alive at the time of sacrifice, some spleens were weighed to assess splenomegaly, another index of systemic autoimmune disease progression.
(§4) It may not be possible to perform an extensive statistical analysis on serum measures if there are high mortality rates, if the differential mortality rates between groups lead to large differences in sample sizes, and an inability to get sufficient blood from some mice. In this case, pretreatment-posttreatment statistical comparisons (paired t-tests) are conducted only for those mice that survive the treatment period.

[3] = system: MRL/MpJ-Fas^lPr autoimmune mice; experiment: Serum immune complexes as index of systemic autoimmune disease; assay type: in vivo, mouse; conditions: for effect on serum immune complexes: pre- vs posttreatment
Description: as §3, §4

[4] = system: MRL/MpJ-Fas^lPr autoimmune mice; experiment: Anti-nuclear antibody (ANA) levels by immunofluorescence; assay type: in vivo, mouse; conditions: pre- vs posttreatment
Description: as §3
Antibodies against nuclear material are another manifestation of autoimmune disease. Anti-nuclear antibody (ANA) levels are determined by level of immunofluorescence (1+ to 4+) with normal as 1+as previously described (Trune et al., Hear. Res. 38:57-66, 1989).

[5] = system: MRL/MpJ-Fas^lPr autoimmune mice; experiment: Spleen weight (splenomegaly); assay type: in vivo, mouse; conditions: at sacrifice; prednisolone 5 mg treatment; aldosterone dose not stated
Description: as §3
Increased spleen size also is a manifestation of autoimmune disease, increasing with progression of systemic T and B cell proliferation. The spleen is approximately 75-100 mg in normal mice.

[6] = system: MRL/MpJ-Fas^lPr autoimmune mice; experiment: Cochlear histology of the stria vascularis; assay type: in vivo, mouse; conditions: for stria vascularis appearance: after steroid treatment, qualitative
Experimental: Following decalcification in EDTA, the ears were cryostat sectioned for qualitative morphologic evaluations of the stria vascularis. The procedure of Whitlon et al. (Brain Res. Protocols, 6:159-66, 2001) can be used to improve OCT compound infiltration and tissue preservation. The cochleas were cryostat sectioned for immunocytochemical analyses. Quantitative morphology was performed on glycol methacrylate (GMA) embedded tissue as follows. […] Following decalcification in EDTA, the ears were embedded in glycol methacrylate for light microscopic examination. Every fourth section (5 μm thickness) wass serially mounted on glass slides and stained for quantitative and qualitative analyses. Cochleas were scanned for pathological changes and treatment effects. Of particular interest is the stria vascularis, lateral wall, hair cells, spiral ganglion neurons, and all blood vessels in modiolar and sensory regions. The area occupied by stria vascularis, blood vessels, non-blood vessels, and intercellular edema was measured for statistical analysis. Alternatively, the following methods can be used to qualitatively determine stria vascularis and spiral ligament and integrity of endothelial cell tight junctions, intercellular edema. […] Thin sections are observed on a Philips CM100. Qualitative observations are made of the cochlear tissue areas above and any other regions determined in the immunohistochemistry section to be responsive to steroid therapy. Stria vascularis is examined for integrity of endothelial cell tight junctions, and intercellular edema, to determine the treatment effects on known changes that occur in autoimmune disease.

[7] = system: MRL/MpJ-Fas^lPr autoimmune mice; experiment: Drug combination therapy: ABR ear outcome; assay type: in vivo, mouse
Experimental: as §1, §2
Hearing loss was monitored monthly using the method described in Example 2.

[8] = system: MRL/MpJ-Fas^lPr autoimmune mice; experiment: Drug combination therapy: survival; assay type: in vivo, mouse; conditions: for % alive: 2 months
[9] = system: MRL/MpJ-Fas^lPr autoimmune mice; experiment: Stria blood vessel size (quantitative morphology, plastic embedding); assay type: in vivo, mouse; conditions: Chi-squared of vessels above and below normal median
Description: To increase histological detail in order to quantitatively measure steroid responsive hearing loss (stria blood vessel sizes), plastic embedding methods were used as described herein. Age-matched BALB/c controls also were processed to provide details of non-autoimmune stria. Camera lucida drawings were made of the stria, its blood vessels, and the edematous spaces. Digitized measurements were made of these various features.

[10] = system: MRL/MpJ-Fas^lPr autoimmune mice; conditions: mouse, in vivo
Description: (§5) Serum samples were collected for baseline levels of hematocrit, serum immune complexes, and antinuclear antibodies, all hallmarks of systemic autoimmune disease. […] At the end of treatments, ABR audiometry and serum collection were repeated at 2, 3, and 4 months of treatment to determine steroid effects on cochlear function and systemic autoimmunity.
(§6) Oral delivery in mice provides a constant source of steroid, parallels oral administration in humans, and avoids the trauma of daily injections.
(§7) Mice receiving aldosterone were administered a daily oral dose of 3, 5, 15, or 30 μLg/kg/day of d-aldosterone (Sigma, St. Louis Mo.). Aldosterone drinking water was prepared by dissolving 50 μg of steroid in 50 μl of 100% ETOH, then diluting the required amount in the 500 ml of water in the drinking bottle to reach the final effective dose. The highest final ETOH concentration in a waterbottle was 0.018% (90 μl dose) and was considered negligible.
(§8) Mice receiving fludrocortisone were administered a daily oral dose of 3 μg/kg per day or 10 μg/kg per day. Fludrocortisone drinking water was prepared by dissolving 50 μg of fludrocortisone, 50 μl of 100% ETOH, then diluting the required amount in the 500 ml of water in the drinking bottle to reach the final effective dose. The final ETOH concentration in a water bottle was considered negligible.
(§9) The shift in thresholds between baseline and posttreatment times was analyzed for each ear with a paired t-test. […] A probability value less than 0.05 was considered significant in all tests. […] In addition, by summing the shifts at each frequency, any random fluctuations in thresholds at the different frequencies due to equipment or animal variation are mathematically removed.

[11] = system: MRL/MpJ-Fas^lPr autoimmune mice; conditions: Trune et al., Laryngoscope 2000; cited from earlier work
[12] = system: MRL/MpJ-Fas^lPr autoimmune mice; experiment: Survival and tolerance of steroid drinking water; conditions: for tolerance of steroid in the drinking water: dehydration, avoidance of drinking
Description: as §5, §6, §7, §8, §9

[13] = system: MRL/MpJ-Fas^lPr autoimmune mice
Experimental: (§10) The spironolactone treatment group was given daily oral doses (5 mg/kg per day) of spironolactone (Sigma, St. Louis, Mo.). Spironolactone drinking water was prepared by dissolving 15 mg of spironolactone in 0.6-0.8 ml of 100% ethyl alcohol (ETOH) and diluting it into a 500 ml drinking-water bottle. Mice drink 3-5 ml of water daily, so the effective dose was approximately 0.15 mg per day. The final ETOH concentration was approximately 0.1% and considered negligible. The dose of spironolactone administered (5 mg/kg per day) was equivalent to the dose used clinically for the treatment of primary hyperaldosteronism and was likely insufficient to completely block the mineralocorticoid receptor.
The spironolactone+aldosterone treatment group was given 15 μg/kg per day of aldosterone in addition to the 5 mg/kg/day of spironolactone. Aldosterone drinking water was prepared by dissolving 50 μg of aldosterone in 50 μl of 100% ETOH and diluting it in the same 500 ml drinking-water bottle as the spironolactone. The final effective dose of aldosterone was approximately 0.5 μg per day. The final ETOH concentration of aldosterone was less than 0.009%. […]
ABR thresholds were recorded before and during treatment (2, 3, and 4 months) to measure the effect of steroids on hearing decline as described above in Example 2.
Ears also were analyzed independently across all frequencies. […]

[14] = system: MRL/MpJ-Fas^lPr autoimmune mice; conditions: spironolactone study
Experimental: as §10

[15] = Aldosterone 10 μg/kg/day, 2 months of treatment

## C[C@]12CCC(=O)C=C1CC[C@@H]1[C@@H]2[C@@H](O)C[C@]2(C=O)[C@@H](C(=O)CO)CC[C@@H]12 [Aldosterone, d-aldosterone]
[1]; two month treatment period
  overall ABR threshold changes vs pretreatment baselines: prevent significant overall threshold changes
[1]
  % of ears that are same (unchanged): 27%
  % of ears that are worse: 69%
  % of ears that are better: 4%
[1]; two months of treatment, Chi-squared
  thresholds / cochlear function relative to water controls: significantly better thresholds than controls
[2]
  change in hematocrit: did not cause any significant change
[3]; higher dose aldosterone, four surviving mice
  posttreatment serum immune complex levels: 53,000 μg/ml
[3]; higher dose aldosterone, two of the four surviving mice
  serum immune complex levels in individual mice: 157,000 μg/ml and 45,000 μg/ml
[3]
  effect on serum immune complexes: did not show any significant depression
[4]
  impact on continuing elevation of ANA levels: did not have a significant impact
[5]
  average spleen weight: 399 mg
[6]
  stria vascularis appearance: restored the stria to almost normal appearance
[6]; aldosterone 15 and 30 μg treatment groups
  stria appearance: virtually normal in appearance
[6]; lowest aldosterone dose
  stria epithelia appearance: some edema and large vessels
[7]; [15]
  # Better (ears): 0
  # Worse (ears): 13
  # no change (ears): 1
  (%) Worse (ears): (93%)
  (%) no change (ears): 7%
[7]; prednisolone alone at 1 mg/kg/day, aldosterone alone at 3 μg/kg/day
  prevention of hearing loss / decrease of rate of hearing loss: not prevented
[8]; Aldosterone 10 μg/kg/day
  Alive at 2 months of Tx (mice): 7
  % alive: 87.5%
[9]
  stria blood vessel size relative to normal BALB/c median (35.3 μm^2): the same size as normal mice
[10]
  tolerance of steroid in the drinking water: no adverse affects
[11]
  reversing or stabilizing autoimmune related hearing loss: just as effective as prednisolone

## C[C@]12CCC(=O)C=C1CC[C@H]1[C@@H]3CC[C@](O)(C(=O)CO)[C@@]3(C)C[C@H](O)[C@@]12F [Fludrocortisone]
[1]
  % of ears that are same (unchanged): 55% and 54.5%
  % of ears that are worse: 34%
  % of ears that are better: 12% and 11.5%
[12]
  tolerance of steroid in the drinking water: similarly tolerate

## CC(=O)S[C@@H]1CC2=CC(=O)CC[C@]2(C)[C@H]2CC[C@@]3(C)[C@@H](CC[C@@]34CCC(=O)O4)[C@H]12 [Spironolactone]
[13]; four months of treatment
  hearing patterns compared to water controls: no difference from controls
[13]; three months of treatment
  hearing thresholds compared to water controls: no different from untreated mice
[14]
  systemic immune disease (immune complexes, hematocrits, body weights): normal progression of systemic disease

## prednisolone sodium phosphate
[2]; higher dose prednisolone
  hematocrits: elevated hematocrits beyond the normal range
[2]; lower prednisolone dose
  average hematocrits: in the normal range
[2]
  change in hematocrit: elevated hematocrits
[3]; higher prednisolone dose, dropped from 3,920 μg/ml
  serum immune complex levels after treatment: approximately 450 μg/ml
[3]
  effect on serum immune complexes: lowered serum immune complexes in a dose dependent manner
[3]; prednisolone 5 mg dose, reduced from 4,570 μg/ml
  serum immune complexes after treatment: 1,092 μg/ml
[4]
  impact on continuing elevation of ANA levels: did not have a significant impact
[5]
  average spleen weight: 45 mg
[6]
  stria vascularis appearance: proper epithelium thickness, although dilated vessels still were seen
[8]; Prednisolone 3 mg/kg/day
  Alive at 2 months of Tx (mice): 3
  % alive: 42.9%
[14]
  systemic immune disease (immune complexes, hematocrits, body weights): all of the normal immune suppression effects
[12]
  tolerance of steroid in the drinking water: no adverse affects
[12]; end of two months of treatment
  survival: 60-65%
